Read-outs that look alike come from different tables or passages of the source.
Experiments:
Pharmacokinetics in dog = type: in vivo; details: for clearance: in vivo, read-out: Cl Dog (converted)
Caco-2 permeability = type: in vitro ADME
Pharmacokinetics in rat = type: in vivo; details: for clearance: in vivo, read-out: Cl Rat (converted)
HIV [1] = assay: Anti-HIV activity in MT4 cells; type: cell-based; details: Human immunodeficiency virus 1
Strand Transfer = Strand Transfer (Human immunodeficiency virus type 1 group M subtype B, UniProt P04585); assay: Integrase strand transfer inhibition; type: biochemical, HIV
in vitro = details: human
[2] = Cytotoxicity in MT4 cells; details: human
[3] = Hepatocyte stability, dog; details: hepatocytes
[4] = Phosphonate prodrugs in vivo summary (pharmacokinetics); details: species not given
[5] = Hepatocyte stability, human; details: hepatocytes
[6] = In vitro PBMC loading rate; type: in vitro ADME; details: human
Text: In one embodiment, the invention is provides compounds capable of accumulating in human PBMC (peripheral blood mononuclear cells). PBMC refer to blood cells having round lymphocytes and monocytes. Physiologically, PBMC are critical components of the mechanism against infection. PBMC may be isolated from heparinized whole blood of normal healthy donors or buffy coats, by standard density gradient centrifugation and harvested from the interface, washed (e.g. phosphate-buffered saline) and stored in freezing medium. PBMC may be cultured in multi-well plates. At various times of culture, supernatant may be either removed for assessment, or cells may be harvested and analyzed (Smith R. etal (2003) Blood 102(7):2532-2540). The compounds of this embodiment may further comprise a phosphonate or phosphonate prodrug. More typically, the phosphonate or phosphonate prodrug can have the structure A^3 as described herein.

HIV [7] = assay: Antiviral activity in MT-2 cells; type: cell-based
[8] = human, Caco-2 studies, read-out: Papp

SMILES	half-life [3] [h]	(head line blank) [4] [mL/min/kg]	F [4]	Vdβ [4]	half-life [5] [h]	In vitro PBMC Loading Rate [6] [nM/h]	also measured
O=C(NCc1ccccn1)c1c2c(c(O)c3ncccc13)C(=O)N(Cc1ccc(F)cc1)C2 [Compound 2001]	–	–	–	–	–	–	F Dog (Pharmacokinetics in dog): 28%; Vdb Dog (Pharmacokinetics in dog): 0.8 L/kg; clearance (Pharmacokinetics in dog): 1.17 mL/min/kg; Papp (Caco-2 permeability; [8]): 5 ×10⁻⁶ cm/s; F Rat (Pharmacokinetics in rat): 2%; Vdb Rat (Pharmacokinetics in rat): 8.2 L/kg; clearance (Pharmacokinetics in rat): 183 mL/min/kg
CCOP(=O)(COc1c2c(c(O)c3ncccc13)C(=O)N(Cc1ccc(F)cc1)C2)OCC [Compound 2002]	–	–	–	–	–	–	EC50 (HIV [1]): < 20 nM; IC50 (Strand Transfer; read-out: IC50 Strand Transfer): < 600 nM; CC50 (in vitro): < 5000 nM
CCOP(=O)(CN1CCN(C(=O)Oc2c3c(c(O)c4ncccc24)C(=O)N(Cc2ccc(F)cc2)C3)CC1)OCC [Compound 2003]	–	–	–	–	–	–	CC50 [2]: < 5000 nM; EC50 (HIV [1]): < 20 nM; IC50 (Strand Transfer): < 600 nM
COP(=O)(CCN1CCN(C(=O)Oc2c3c(c(O)c4ncccc24)C(=O)N(Cc2ccc(F)cc2)C3)CC1)OC [Compound 2004]	–	–	–	–	–	–	CC50 [2]: < 5000 nM; EC50 (HIV [1]): < 20 nM; IC50 (Strand Transfer): < 600 nM
CCOC(=O)[C@H](C)OP(=O)(CCN1CCN(C(=O)Oc2c3c(c(O)c4ncccc24)C(=O)N(Cc2ccc(F)cc2)C3)CC1)Oc1ccccc1 (some centres unmarked) [Compound 2005]	1.07	60	3%	10.8 L/kg	1.65	5291	CC50 [2]: < 5000 nM; EC50 (HIV [1]): < 20 nM; IC50 (Strand Transfer): < 1200 nM
CCOC(=O)[C@H](C)NP(=O)(CCNC(=O)c1c2c(c(O)c3ncccc13)C(=O)N(Cc1ccc(F)cc1)C2)Oc1ccccc1 (some centres unmarked) [Compound 2006]	1.73	15	BLQ	0.7 L/kh	1.63	7830	–
CCOC(=O)[C@H](C)NP(=O)(CCNC(=O)c1c2c(c(O)c3ncccc13)C(=O)N(Cc1ccc(F)cc1)C2)N[C@@H](C)C(=O)OCC [Compound 2007]	3.23	58.3	–	4 L/kg	2.65	–	Papp (Caco-2 permeability; Caco-2): BQL
CCOC(=O)C(C)NP(=O)(CCN(C)C(=O)c1c2c(c(O)c3ncccc13)C(=O)N(Cc1ccc(F)cc1)C2)Oc1ccccc1 (centres unmarked) [Compound 2008]	0.733	15	0.5%	1.8 L/kg	1.95	19551	Papp (Caco-2 permeability; human, Caco-2, read-out: Papp): 0.1 ×10⁻⁶ cm/s
CCOC(=O)[C@H](C)NP(=O)(CCN(C)C(=O)c1c2c(c(O)c3ncccc13)C(=O)N(Cc1ccc(F)cc1)C2)OCC(F)(F)F (some centres unmarked) [Compound 2009]	1.22	43.3	7%	3 L/kg	–	–	Papp (Caco-2 permeability; human, Caco-2, read-out: Papp): 1 to 4 ×10⁻⁶ cm/s
CCOC(=O)[C@H](C)OP(=O)(CCN1CCN(C(=O)c2c3c(c(O)c4ncccc24)C(=O)N(Cc2ccc(F)cc2)C3)CC1)Oc1ccccc1 (some centres unmarked) [Compound 2011]	0.733	76.7	0.3%	9.1 L/kg	1.4	4810	–
CCOC(=O)[C@H](C)NP(=O)(CCCN(C)C(=O)c1c2c(c(O)c3ncccc13)C(=O)N(Cc1ccc(F)cc1)C2)Oc1ccccc1 (some centres unmarked) [Compound 2012]	0.767	12	0.2%	0.7 L/kh	2.57	4831	Papp (Caco-2 permeability; Caco-2): BQL
CCOC(=O)[C@H](C)NP(=O)(CO[C@H](C)CNC(=O)c1c2c(c(O)c3ncccc13)C(=O)N(Cc1ccc(F)cc1)C2)Oc1ccccc1 (some centres unmarked) [Compound 2013]	0.883	15	–	4 L/kg	1.33	5774	Papp (Caco-2 permeability; Caco-2): BQL
CCOC(=O)[C@H](C)OP(=O)(CCNC(=O)c1c2c(c(O)c3ncccc13)C(=O)N(Cc1ccc(F)cc1)C2)Oc1ccccc1 (some centres unmarked) [Compound 2014]	–	16.7	0.04%	1.1 L/kg	–	–	–
CCOC(=O)[C@H](C)NP(=O)(CCN1CCN(C(=O)c2c3c(c(O)c4ncccc24)C(=O)N(Cc2ccc(F)cc2)C3)CC1)Oc1ccccc1 (some centres unmarked) [Compound 2015]	–	13	–	0.8 L/kh	–	–	–
CCOC(=O)[C@H](C)NP(=O)(CCCNC(=O)c1c2c(c(O)c3ncccc13)C(=O)N(Cc1ccc(F)cc1)C2)Oc1ccccc1 (some centres unmarked) [Compound 2016]	–	6.7	–	0.7 L/kh	–	–	–
CCOC(=O)[C@H](C)NP(=O)(CCN(C)C(=O)c1c2c(c(O)c3ncccc13)C(=O)N(Cc1ccc(F)cc1)C2)OCC(F)(F)F (some centres unmarked) [Compound 2017]	–	–	–	–	–	–	EC50 (HIV [7]): 1 nM
CCOC(=O)[C@H](C)NP(=O)(CCN(C)C(=O)c1c2c(c(O)c3ncccc13)C(=O)N(Cc1ccc(F)cc1)C2)OCC(F)(F)F (some centres unmarked) [Compound 2018]	–	–	–	–	–	–	EC50 (HIV [7]): 0.1 nM
CCOP(=O)(CNC(=O)CCSC1c2c(c(O)c3ncccc3c2OC)C(=O)N1Cc1ccc(F)cc1)OCC (centres unmarked) [Compound 2021]	–	–	–	–	–	–	EC50 (HIV [1]): < 500 nM; IC50 (Strand Transfer; read-out: IC50 Strand Transfer): < 1200 nM; CC50 (in vitro): < 50000 nM
O=C(NCc1ccc(F)cc1)c1nc(N2CCCCS2(=O)=O)c2cccnc2c1O [Compound L-870810, reference compound]	–	–	–	–	–	–	F Dog (Pharmacokinetics in dog): 50%; Vdb Dog (Pharmacokinetics in dog): 0.5 L/kg; clearance (Pharmacokinetics in dog): 1.17 mL/min/kg; Papp (Caco-2 permeability; [8]): 40 ×10⁻⁶ cm/s; F Rat (Pharmacokinetics in rat): 42%; Vdb Rat (Pharmacokinetics in rat): 0.72 L/kg; clearance (Pharmacokinetics in rat): 1.5 mL/min/kg

Source: patent US20080076740A1, “Antiviral compounds” (GILEAD SCIENCES, INC., priority 2005, published 2008)
